Laboratory results taken from US12570642B2, “GLP-IR modulating compounds” (Gilead Sciences, Inc., priority 2021, dated 2026).

Biological target: GLP-1R (Homo sapiens, UniProt P43220)
Experiment: GLP-1R Activation - cAMP Assay
Assay type: cell-based
Conditions: cAMP increase in CHO cells stably expressing GLP-1R; each compound run on one of the two cAMP assays (Assay 1 or Assay 2, not specified)
Outline: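 CHO cells stably expressing GLP-1R, plated at 1,000 cells/well overnight, then equilibrated 1 h in HBSS with 20 mM Hepes and 0.1% BSA. Agonist added as 10-point dose response for 30 min at 37 °C. cAMP measured by HTRF (Cisbio Gs Dynamic kit); EC50 from sigmoidal fit.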

Sequence of GLP-1R (P43220 24-463): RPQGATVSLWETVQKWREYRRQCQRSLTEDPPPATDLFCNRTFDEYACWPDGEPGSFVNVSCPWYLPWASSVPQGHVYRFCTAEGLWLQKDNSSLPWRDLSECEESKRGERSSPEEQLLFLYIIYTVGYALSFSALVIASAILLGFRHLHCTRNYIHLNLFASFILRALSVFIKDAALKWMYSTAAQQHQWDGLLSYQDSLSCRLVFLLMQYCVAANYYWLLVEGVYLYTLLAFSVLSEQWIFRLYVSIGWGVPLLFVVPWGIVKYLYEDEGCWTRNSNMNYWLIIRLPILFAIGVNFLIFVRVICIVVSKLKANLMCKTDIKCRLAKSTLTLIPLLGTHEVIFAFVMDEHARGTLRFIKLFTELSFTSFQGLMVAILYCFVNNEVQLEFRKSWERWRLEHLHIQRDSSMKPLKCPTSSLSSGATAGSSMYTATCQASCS

EC50 [nM] | SMILES
0.132 | CC1(C)COCC1n1c(Cc2cc(F)c(-c3ccc(F)c(OCc4ccc(Cl)cc4F)n3)cc2F)nc2c(F)cc(C(=O)O)cc21 (centres unmarked) [Example 347, 2-(4-(6-((4-chloro-2-fluorobenzyl)oxy)-5-fluoropyridin-2-yl)-2,5-difluorobenzyl)-1-(4,4-dimethyltetrahydrofuran-3-yl)-4-fluoro-1H-benzo[d]imidazole-6-carboxylic acid]
12.3 | N#Cc1ccc(COc2cccc(-c3ccc(Cc4nc5ccc(C(=O)O)cc5n4[C@@H]4CCOC4)c(F)c3)n2)c(F)c1 [Example 209, (R)-2-(4-(6-((4-cyano-2-fluorobenzyl)oxy)pyridin-2-yl)-2-fluorobenzyl)-1-(tetrahydrofuran-3-yl)-1H-benzo[d]imidazole-6-carboxylic acid]
0.515 | N#Cc1ccc(COc2nc(-c3cc(F)c(Cc4nc5c(F)cc(C(=O)O)cc5n4C4COCC45CC5)cc3F)ccc2F)c(F)c1 (centres unmarked) [Example 224, 2-(4-(6-((4-cyano-2-fluorobenzyl)oxy)-5-fluoropyridin-2-yl)-2,5-difluorobenzyl)-4-fluoro-1-(5-oxaspiro[2.4]heptan-7-yl)-1H-benzo[d]imidazole-6-carboxylic acid]
0.2 | CC1(C)COC[C@H]1n1c(Cc2cc(F)c(-c3cccc(OCc4ccccc4C#N)n3)cc2F)nc2ccc(C(=O)O)cc21 [Example 446, (S)-2-(4-(6-((2-cyanobenzyl)oxy)pyridin-2-yl)-2,5-difluorobenzyl)-1-(4,4-dimethyltetrahydrofuran-3-yl)-1H-benzo[d]imidazole-6-carboxylic acid]
0.939 | CC1(C)COC[C@@H]1n1c(Cc2cc(F)c(-c3cccc(OCc4ccc(C(F)F)cc4F)n3)cc2F)nc2c(F)cc(C(=O)O)cc21 (single isomer, unassigned) [Example 502B]
0.108 | COCCn1c(Cc2cc(F)c(-c3cccc(OCc4ccc(Cl)cc4)n3)cc2Cl)nc2c(F)cc(C(=O)O)cc21 [Example 255, 2-(2-chloro-4-(6-((4-chlorobenzyl)oxy)pyridin-2-yl)-5-fluorobenzyl)-4-fluoro-1-(2-methoxyethyl)-1H-benzo[d]imidazole-6-carboxylic acid]
0.369 | CC1(C)COC[C@H]1n1c(Cc2cc(F)c(-c3cccc(OCc4ccccc4)n3)cc2F)nc2ccc(C(=O)O)cc21 [Example 363, (S)-2-(4-(6-(benzyloxy)pyridin-2-yl)-2,5-difluorobenzyl)-1-(4,4-dimethyltetrahydrofuran-3-yl)-1H-benzo[d]imidazole-6-carboxylic acid]
0.042 | Cn1cc(-c2ccc(COc3cccc(-c4cc(F)c(Cc5nc6ccc(C(=O)O)cc6n5[C@@H]5COCC5(C)C)cc4F)n3)c(F)c2)nn1 [Example 442, (S)-2-(2,5-difluoro-4-(6-((2-fluoro-4-(1-methyl-1H-1,2,3-triazol-4-yl)benzyl)oxy)pyridin-2-yl)benzyl)-1-(4,4-dimethyltetrahydrofuran-3-yl)-1H-benzo[d]imidazole-6-carboxylic acid]
0.105 | CC1(C)COC[C@H]1n1c(Cc2cc(F)c(-c3ccc(F)c(OCc4ccc(C#N)cc4F)n3)cc2F)nc2ccc(C(=O)O)nc21 [Example 428, (S)-2-(4-(6-((4-cyano-2-fluorobenzyl)oxy)-5-fluoropyridin-2-yl)-2,5-difluorobenzyl)-3-(4,4-dimethyltetrahydrofuran-3-yl)-3H-imidazo[4,5-b]pyridine-5-carboxylic acid]
4.08 | N#Cc1ccc(COc2cccc(-c3cc(F)c(Cc4nc5ccc(C(=O)O)cc5n4[C@@H]4COC[C@H]4C(F)F)cc3F)n2)c(F)c1 (single isomer, unassigned) [Example 261]
5.11 | COCCn1c(Cc2c(F)cc(-c3cccc(OCc4ccc(C#N)cc4F)n3)c3ncnn23)nc2ccc(C(=O)O)cc21 [Example 53]
0.115 | CC1(C)COC[C@H]1n1c(Cc2ccc(-c3nc(OCc4ccc(C#N)cc4)c(F)cc3F)cc2F)nc2ccc(C(=O)O)cc21 [Example 152, (S)-2-(4-(6-((4-cyanobenzyl)oxy)-3,5-difluoropyridin-2-yl)-2-fluorobenzyl)-1-(4,4-dimethyltetrahydrofuran-3-yl)-1H-benzo[d]imidazole-6-carboxylic Acid]
0.457 | CC1(C)COC[C@H]1n1c(Cc2c(F)cc(-c3ccnc(OCc4ccc(F)cc4)n3)c(F)c2F)nc2ccc(C(=O)O)cc21 [Example 574, (S)-1-(4,4-dimethyltetrahydrofuran-3-yl)-2-(2,3,6-trifluoro-4-(2-((4-fluorobenzyl)oxy)pyrimidin-4-yl)benzyl)-1H-benzo[d]imidazole-6-carboxylic acid]
0.379 | Cc1cc(Cc2nc3c(F)cc(C(=O)O)cc3n2[C@@H]2COCC2(C)C)c(Cl)cc1-c1ccnc(OCc2ccc(Cl)cc2)n1 [Example 212, (S)-2-(2-chloro-4-(2-((4-chlorobenzyl)oxy)pyrimidin-4-yl)-5-methylbenzyl)-1-(4,4-dimethyltetrahydrofuran-3-yl)-4-fluoro-1H-benzo[d]imidazole-6-carboxylic acid]
38.3 | N#Cc1ccc(COc2cccc(-c3cc(F)c(Cc4nc5ccc(C(=O)O)cc5n4C4COC5(CC5)C4)cc3F)n2)c(F)c1 (centres unmarked) [Example 203, 2-(4-(6-((4-cyano-2-fluorobenzyl)oxy)pyridin-2-yl)-2,5-difluorobenzyl)-1-(4-oxaspiro[2.4]heptan-6-yl)-1H-benzo[d]imidazole-6-carboxylic acid]
0.21 | CC1(C)COCC1n1c(Cc2cc(F)c(-c3cccc(OCc4ccc(C#N)cc4F)n3)cc2F)nc2c(C#CC3CC3)cc(C(=O)O)cc21 (centres unmarked) [Example 48, 2-(4-(6-((4-cyano-2-fluorobenzyl)oxy)pyridin-2-yl)-2,5-difluorobenzyl)-4-(cyclopropylethynyl)-1-(4,4-dimethyltetrahydrofuran-3-yl)-1H-benzo[d]imidazole-6-carboxylic Acid]
0.083 | CC1(C)COC[C@H]1n1c(Cc2c(F)cc(-c3cccc(OCc4ccc(C#N)cc4F)n3)cc2F)nc2ccc(C(=O)O)cc21 [Example 321, (S)-2-(4-(6-((4-cyano-2-fluorobenzyl)oxy)pyridin-2-yl)-2,6-difluorobenzyl)-1-(4,4-dimethyltetrahydrofuran-3-yl)-1H-benzo[d]imidazole-6-carboxylic acid]
1.6 | CC1(C)COC[C@H]1n1c(Cc2cc(F)c(-c3cccc(OCc4ccc(Cl)cc4C(F)(F)F)n3)cc2F)nc2ccc(C(=O)O)cc21 [Example 469, (S)-2-(4-(6-((4-chloro-2-(trifluoromethyl)benzyl)oxy)pyridin-2-yl)-2,5-difluorobenzyl)-1-(4,4-dimethyltetrahydrofuran-3-yl)-1H-benzo[d]imidazole-6-carboxylic acid]
0.279 | Cc1ncc(-c2ccc(COc3cccc(-c4cc(F)c(Cc5nc6ccc(C(=O)O)cc6n5[C@@H]5COCC5(C)C)cc4F)n3)c(F)c2)o1 [Example 445, (S)-2-(2,5-difluoro-4-(6-((2-fluoro-4-(2-methyloxazol-5-yl)benzyl)oxy)pyridin-2-yl)benzyl)-1-(4,4-dimethyltetrahydrofuran-3-yl)-1H-benzo[d]imidazole-6-carboxylic acid]
0.114 | CC1(C)COC[C@H]1n1c(Cc2cc(F)c(-c3ccc(Cl)c(OCc4ccc(C#N)cc4)n3)cc2F)nc2ccc(C(=O)O)cc21 [Example 432, (S)-2-(4-(5-chloro-6-((4-cyanobenzyl)oxy)pyridin-2-yl)-2,5-difluorobenzyl)-1-(4,4-dimethyltetrahydrofuran-3-yl)-1H-benzo[d]imidazole-6-carboxylic acid]
3.02 | CC1(C)COC[C@H]1n1c(Cc2cc(F)c(-c3cccc(OCc4ccc(C#N)cc4)n3)cc2F)nc2cnc(C(=O)O)cc21 [Example 421, (S)-2-(4-(6-((4-cyanobenzyl)oxy)pyridin-2-yl)-2,5-difluorobenzyl)-1-(4,4-dimethyltetrahydrofuran-3-yl)-1H-imidazo[4,5-c]pyridine-6-carboxylic acid]
0.026 | Cn1nncc1-c1ccc(COc2cccc(-c3cc(F)c(Cc4nc5ccc(C(=O)O)cc5n4[C@@H]4COCC4(C)C)cc3F)n2)c(F)c1 [Example 554, (S)-2-(2,5-difluoro-4-(6-((2-fluoro-4-(1-methyl-1H-1,2,3-triazol-5-yl)benzyl)oxy)pyridin-2-yl)benzyl)-1-(4,4-dimethyltetrahydrofuran-3-yl)-1H-benzo[d]imidazole-6-carboxylic acid]
1.17 | COCCn1c(Cc2cc(F)c(-c3ccc(F)c(OCc4ccc(C#N)cc4)n3)cc2F)nc2ccc(C(=O)O)c(F)c21 [Example 366, 2-(4-(6-((4-cyanobenzyl)oxy)-5-fluoropyridin-2-yl)-2,5-difluorobenzyl)-7-fluoro-1-(2-methoxyethyl)-1H-benzo[d]imidazole-6-carboxylic acid]
0.346 | CC1(C)COC[C@H]1n1c(Cc2c(F)cc(-c3ccc(F)c(OCc4ccc(C#N)cc4F)n3)cc2F)nc2ccc(C(=O)O)cc21 [Example 322, (S)-2-(4-(6-((4-cyano-2-fluorobenzyl)oxy)-5-fluoropyridin-2-yl)-2,6-difluorobenzyl)-1-(4,4-dimethyltetrahydrofuran-3-yl)-1H-benzo[d]imidazole-6-carboxylic acid]
0.02 | CC1(C)COC[C@H]1n1c(Cc2c(F)cc(-c3cccc(OCc4ccc(Cl)cc4F)n3)c(F)c2F)nc2c(F)cc(C(=O)O)cc21 [Example 242, (S)-2-(4-(6-((4-chloro-2-fluorobenzyl)oxy)pyridin-2-yl)-2,3,6-trifluorobenzyl)-1-(4,4-dimethyltetrahydrofuran-3-yl)-4-fluoro-1H-benzo[d]imidazole-6-carboxylic acid]
0.501 | Cn1ccc(COc2cccc(-c3cc(F)c(Cc4nc5ccc(C(=O)O)cc5n4[C@@H]4COCC4(C)C)cc3F)n2)cc1=O [Example 427, (S)-2-(2,5-difluoro-4-(6-((1-methyl-2-oxo-1,2-dihydropyridin-4-yl)methoxy)pyridin-2-yl)benzyl)-1-(4,4-dimethyltetrahydrofuran-3-yl)-1H-benzo[d]imidazole-6-carboxylic acid]
